Assay results: PMC9719540, “Synthesis of an amphiphilic vancomycin aglycone derivative inspired by polymyxins: overcoming glycopeptide resistance in Gram-positive and Gram-negative bacteria in synergy with teicoplanin in vitro” (Scientific Reports, 2022)
Where “and” joins values, the source holds several entries; their conditions need not be identical. Equal entries are not always repeated. Structures can show the parent of a compound that is named as a salt. Where two headings read alike, the source gives them in different places.

Legend:
[1] = test system: Enterococcus faecalis 15376 VanA; assay: Antibacterial activity (MIC); type: cell-based
Experimental: (§1) The routine antibacterial evaluations were carried out as it was described in our previous publication. Antimicrobial synergy was determined by evaluating the fractional inhibitory concentration (FIC) index and was characterized by a conventional checkerboard assay. Bacteria grown to mid-logarithmic phase in MHB were pre-incubated with serially diluted concentrations of teicoplanin or vancomycin and compound 14. The sum of the FICs (ΣFIC) was calculated with the equation ΣFIC = FICA + FICB = (CA/MICA) + (CB/MICB), where MICA and MICB are the MICs of antimicrobial A and B alone, respectively, and CA and CB are the inhibitory concentrations of the drugs when combined, respectively. Synergy was defined as a ΣFICs ≤ 0.5 and additive activity was defined as a ΣFICs > 0.5 ≤ 1.0.

[2] = test system: Staphylococcus epidermidis mecA; assay: Antibacterial activity (MIC); type: cell-based
Experimental: as §1

[3] = test system: Klebsiella pneumoniae ST258 clone K 160/09; assay: Antibacterial activity (MIC); type: cell-based
Experimental: as §1

[4] = test system: Staphylococcus aureus MRSA ATCC 33591; assay: Antibacterial activity (MIC); type: cell-based
Experimental: as §1

[5] = test system: Staphylococcus aureus MSSA ATCC 29213; assay: Antibacterial activity (MIC); type: cell-based
Experimental: as §1

[6] = test system: Bacillus subtilis ATCC 6633; assay: Antibacterial activity (MIC); type: cell-based; conditions: ATCC6633
Experimental: as §1

[7] = test system: Escherichia coli ATCC 25218; assay: Antibacterial activity (MIC); type: cell-based; conditions: ATCC25218
Experimental: as §1

[8] = test system: Acinetobacter baumannii ATCC BAA1605; assay: Antibacterial activity (MIC); type: cell-based
Experimental: as §1

[9] = test system: Enterococcus faecalis ATCC 51299 VanB; assay: Antibacterial activity (MIC); type: cell-based
Experimental: as §1

[10] = test system: Staphylococcus epidermidis ATCC 35984 biofilm; assay: Antibacterial activity (MIC); type: cell-based
Experimental: as §1

[11] = test system: Pseudomonas aeruginosa ATCC 27853; assay: Antibacterial activity (MIC); type: cell-based; conditions: ATCC27853
Experimental: as §1

[12] = test system: Enterococcus faecalis ATCC 29212; assay: Antibacterial activity (MIC); type: cell-based; conditions: for MIC: ATCC29212
Experimental: as §1

Caco-2 cells [13] = assay: MTT cytotoxicity (cell viability); type: cell-based, human
Experimental: (§2) Human Caco-2 intestinal epithelial cells were obtained from European Collection of Cell Cultures (ECACC, UK) and grown routinely in Dulbecco’s Minimum Essential Medium (DMEM), supplemented with 10% fetal bovine serum (FBS), 1% non-essential amino acid and 1% penicillin–streptomycin solution.
(§3) In cell viability experiments, 1 × 10^4 hCMEC/D3 or Caco-2 cells/well were seeded on 96-weel plates. After 24 h of incubation, cells were treated with test solutions in different concentrations. The stock solution of the test molecule was dissolved in DMSO and further diluted with cell culture medium to prepare test solutions. […] The control group received culture medium. Cells were incubated with the test solutions for 72 h at 37 °C in an atmosphere of 5% CO2, and test solutions were replaced with 0.05 mg/ml 3-(4,5-dimethylthiazol-2-yl)-2,5-diphenyltetrazolium bromide (MTT) solutions prepared in PBS. Cells were incubated with MTT solutions for 4 h at 37 °C and the formed dark blue formazan crystals were dissolved in acidic isopropanol (isopropanol: 1.0 N hydrochloric acid = 25:1). The absorbance was measured at 570 nm against a 690 nm reference wavelength with a Thermo Fisher Multiskan Go microplate reader (Thermo Fisher, Waltham, MA, USA). Cell viability was expressed as the percentage of the untreated control and IC50 values were calculated by GraphPad Prism 7 software (GraphPad Software Inc., San Diego, CA, USA).

hCMEC/D3 cells [14] = assay: MTT cytotoxicity of combinations, checkerboard configuration; type: cell-based, human
Experimental: (§4) The human immortalized hCMEC/D3 cells (Merck KGaA, Darmstadt, Germany, Cat. # SCC066) were cultured in EndoGRO-MV Complete Culture Media (supplemented with the components of the kit and fibroblast growth factor 2 (FGF-2) at 1 ng/mL final concentration).
as §3, with “CA, USA). […]” for “CA, USA).”

Caco-2 cells [15] = assay: as above; type: cell-based, human; conditions: teicoplanin : compound 14 32:2 µg/mL
Experimental: as §2
as §3, with “in PBS. […] The absorbance” for “in PBS. Cells were incubated with MTT solutions for 4 h at 37 °C and the formed dark blue formazan crystals were dissolved in acidic isopropanol (isopropanol: 1.0 N hydrochloric acid = 25:1). The absorbance”, “CA, USA). […]” for “CA, USA).”

hCMEC/D3 cells [16] = assay: MTT cytotoxicity (cell viability); type: cell-based, human
Experimental: as §4, §3

[17] = test system: Klebsiella pneumoniae ST258 clone K 160/09; assay: Checkerboard assay, combined susceptibility (FIC index); type: cell-based; conditions: for MIC of antibiotic in comb.: antibiotic combined with 14
Experimental: (§5) To determine the activity profile of teicoplanin and vancomycin in combination with compound 14, combined susceptibility tests were perfomed against […] Gram negative strains including Escherichia coli, Pseudomonas aeruginosa, Acinetobacter baumannii and Klebsiella pneumoniae bacteria. The combined effects of compound 14 and the glycopeptide antibiotics were determined by conventional checkerboard assays (images of the chequerboard assay for synergistic combinations are shown in Supplementary Information S1).
as §1

[18] = test system: Escherichia coli ATCC 25218; assay: as above; type: cell-based; conditions: for MIC of antibiotic in comb.: antibiotic combined with 14; for MIC of antibiotic alone: checkerboard
Experimental: as §5, §1

[19] = test system: Acinetobacter baumannii ATCC BAA1605; assay: as above; type: cell-based; conditions: for MIC of antibiotic in comb.: antibiotic combined with 14; for MIC of antibiotic alone: checkerboard
Experimental: as §5, §1

[20] = test system: Pseudomonas aeruginosa ATCC 27853; assay: as above; type: cell-based; conditions: for MIC of antibiotic in comb.: antibiotic combined with 14; for MIC of antibiotic alone: checkerboard
Experimental: as §5, §1

[21] = MTT cytotoxicity (cell viability); type: cell-based, human; conditions: human; Caco-2 cells, MTT, 72 h
Experimental: as §2, §3

[22] = between 0.082 and 200 µM (0.155–375.94 µg/mL)

Compound: CCCCCCCCCC(=O)N[C@H](CC(C)C)C(=O)N[C@H]1C(=O)N[C@@H](CC(N)=O)C(=O)N[C@H]2C(=O)N[C@H]3C(=O)N[C@H](C(=O)N[C@H](C(=O)NCCN)c4cc(OCCN)cc(OCCN)c4-c4cc3ccc4OCCN)[C@H](O)c3ccc(c(Cl)c3)Oc3cc2cc(c3OCCN)Oc2ccc(cc2Cl)[C@H]1O [Compound 14, Tetraaminoethyl N-decanoyl norvancomycin aglycone aminoethyl amide trifluoroacetate salt]
- MIC ([1]; Enterococcus faecalis 15376 VanA, read-out: MIC): 8 µg/mL
- times more potent than vancomycin (MIC ratio) ([1]; resistant VanA E. faecalis): 32 times
- MIC ([2]; Staphylococcus epidermidis mecA, read-out: MIC): 2 µg/mL
- MIC ([3]; Klebsiella pneumoniae ST258 clone K 160/09, read-out: MIC): 256 µg/mL
- MIC ([4]; Staphylococcus aureus MRSA ATCC 33591, read-out: MIC): 8 µg/mL
- MIC ([5]; Staphylococcus aureus MSSA ATCC 29213, read-out: MIC): 8 µg/mL
- MIC ([6]; Bacillus subtilis ATCC 6633, read-out: MIC): 4 µg/mL
- MIC ([7]; Escherichia coli ATCC 25218, read-out: MIC): 128 µg/mL
- MIC ([8]; ATCCBAA1605, Acinetobacter baumannii ATCC BAA1605, read-out: MIC): 128 µg/mL
- MIC ([9]; ATCC51299, Enterococcus faecalis ATCC 51299 VanB, read-out: MIC): 32 µg/mL
- MIC ([10]; ATCC35984, Staphylococcus epidermidis ATCC 35984 biofilm, read-out: MIC): 4 µg/mL
- MIC ([11]; Pseudomonas aeruginosa ATCC 27853, read-out: MIC): 128 µg/mL
- MIC ([12]; Enterococcus faecalis ATCC 29212, read-out: MIC): 16 µg/mL
- times less active than vancomycin (MIC ratio) ([12]; vancomycin sensitive E. faecalis ATCC 29212): 16 times
- IC50 (Caco-2 cells [13]; MTT, 72 h): > 100 µM
- IC50 (cytotoxicity) (Caco-2 cells [13]; MTT, 72 h): > 206.86 µg/mL
- cell viability (hCMEC/D3 cells [14]; teicoplanin : compound 14 2:32 µg/mL, percentage of untreated control): 81.4%
- toxicity of combination (hCMEC/D3 cells [14]; teicoplanin : compound 14 32:2 µg/mL): not toxic
- toxicity of combination (Caco-2 cells [15]): not toxic
- IC50 (hCMEC/D3 cells [16]; MTT, 72 h): 56.2 ± 7.74 µM
- IC50 (cytotoxicity) (hCMEC/D3 cells [16]; MTT, 72 h): 116.29 ± 16 µg/mL
- Combined effect ([17]; 14 combined with teicoplanin): neither synergy nor additive activity and None
- Combined effect ([17]; 14 combined with vancomycin): neither synergy nor additive activity and None
- MIC ([17]; checkerboard, read-out: MIC of 14 alone): 256 µg/mL
- MIC of 14 in comb. ([17]; combined with teicoplanin): 256 µg/mL
- MIC of 14 in comb. ([17]; combined with vancomycin): 256 µg/mL
- FIC index ([18]; 14 combined with teicoplanin): 0.2578
- FIC index ([18]; 14 combined with vancomycin): 0.5078
- MIC ([18]; ATCC25218, checkerboard, read-out: MIC of 14 alone): 256 µg/mL
- MIC of 14 in comb. ([18]; combined with teicoplanin): 32 µg/mL
- MIC of 14 in comb. ([18]; combined with vancomycin): 64 µg/mL
- FIC index ([19]; 14 combined with teicoplanin): 0.2656
- FIC index ([19]; 14 combined with vancomycin): 0.75
- MIC ([19]; ATCCBAA1605, checkerboard, read-out: MIC of 14 alone): 128 µg/mL
- MIC of 14 in comb. ([19]; combined with teicoplanin): 2 µg/mL
- MIC of 14 in comb. ([19]; combined with vancomycin): 32 µg/mL
- FIC index ([20]; 14 combined with teicoplanin): 0.375
- FIC index ([20]; 14 combined with vancomycin): 0.5625
- MIC ([20]; ATCC27853, checkerboard, read-out: MIC of 14 alone): 256 µg/mL
- MIC of 14 in comb. ([20]; combined with teicoplanin): 32 µg/mL
- MIC of 14 in comb. ([20]; combined with vancomycin): 64 µg/mL

Compound: CN[C@H](CC(C)C)C(=O)N[C@H]1C(=O)N[C@@H](CC(N)=O)C(=O)N[C@H]2C(=O)N[C@H]3C(=O)N[C@H](C(=O)N[C@H](C(=O)O)c4cc(O)cc(O)c4-c4cc3ccc4O)[C@H](O)c3ccc(c(Cl)c3)Oc3cc2cc(c3O[C@@H]2O[C@H](CO)[C@@H](O)[C@H](O)[C@H]2O[C@H]2C[C@](C)(N)[C@H](O)[C@H](C)O2)Oc2ccc(cc2Cl)[C@H]1O [Vancomycin]
- MIC ([1]; Enterococcus faecalis, 15376VANA): 256 µg/mL
- MIC ([2]; Staphylococcus epidermidis): 4 µg/mL
- MIC ([3]; Klebsiella pneumoniae): 256 µg/mL
- MIC ([4]; Staphylococcus aureus): 0.5 µg/mL
- MIC ([5]; Staphylococcus aureus): 0.5 µg/mL
- MIC ([6]; Bacillus subtilis): 0.5 µg/mL
- MIC ([7]; Escherichia coli): 256 µg/mL
- MIC ([8]; Acinetobacter baumannii, ATCCBAA1605): 128 µg/mL
- MIC ([9]; Enterococcus faecalis, ATCC51299): 128 µg/mL
- MIC ([10]; Staphylococcus epidermidis, ATCC35984): 2 µg/mL
- MIC ([11]; Pseudomonas aeruginosa): 256 µg/mL
- MIC ([12]; Enterococcus faecalis): 1 µg/mL
- IC50 at 72 h [21]: 54.2 µM and 78.7 µg/mL
- MIC of antibiotic in comb. [17]: 256 µg/mL
- MIC of antibiotic alone ([17]; checkerboard): 256 µg/mL
- MIC of antibiotic in comb. [18]: 2 µg/mL
- MIC of antibiotic alone [18]: 256 µg/mL
- MIC of antibiotic in comb. [19]: 64 µg/mL
- MIC of antibiotic alone [19]: 128 µg/mL
- MIC of antibiotic in comb. [20]: 16 µg/mL
- MIC of antibiotic alone [20]: 256 µg/mL

Compound: Teicoplanin
- MIC ([1]; Enterococcus faecalis 15376 VanA): 256 µg/mL
- MIC ([2]; Staphylococcus epidermidis mecA): 16 µg/mL
- MIC ([3]; Klebsiella pneumoniae ST258 clone K 160/09): 256 µg/mL
- MIC ([4]; Staphylococcus aureus MRSA ATCC 33591): 0.5 µg/mL
- MIC ([5]; Staphylococcus aureus MSSA ATCC 29213): 0.5 µg/mL
- MIC ([6]; Bacillus subtilis): 0.5 µg/mL
- MIC ([7]; Escherichia coli): 256 µg/mL
- MIC ([8]; Acinetobacter baumannii ATCC BAA1605): 128 µg/mL
- MIC ([9]; Enterococcus faecalis ATCC 51299 VanB): 0.5 µg/mL
- MIC ([10]; Staphylococcus epidermidis ATCC 35984 biofilm): 4 µg/mL
- MIC ([11]; Pseudomonas aeruginosa): 256 µg/mL
- MIC ([12]; Enterococcus faecalis): 1 µg/mL
- cytotoxic effect (Caco-2 cells [13]; [22]): did not show cytotoxic effect
- cytotoxic effect (hCMEC/D3 cells [16]; [22]): did not show cytotoxic effect
- MIC of antibiotic in comb. [17]: 256 µg/mL
- MIC of antibiotic alone ([17]; checkerboard): 256 µg/mL
- MIC of antibiotic in comb. [18]: 2 µg/mL
- MIC of antibiotic alone [18]: 256 µg/mL
- MIC of antibiotic in comb. [19]: 32 µg/mL
- MIC of antibiotic alone [19]: 128 µg/mL
- MIC of antibiotic in comb. [20]: 32 µg/mL
- MIC of antibiotic alone [20]: 256 µg/mL
